Molecules are shown by their SMILES. Where two headings read alike, the source gives them in different places.

The procedure of the series:
A lyophilizated product solubility test and a stability test are conducted to compare the cosmetic composition of the present invention with the start materials of the cosmetic composition.

As for `O=C1O[C@H]([C@@H](O)CO)C([O-])=C1OP(=O)([O-])[O-].O=C1O[C@H]([C@@H](O)CO)C([O-])=C1OP(=O)([O-])[O-].[Mg+2].[Mg+2].[Mg+2]` [Magnesium ascorbyl phosphate, magnesium ascorbyl phosphate], the Solubility runs as follows: (after processing the cosmetic composition (lyophilized with water-soluble collagen, rehydrated with the amount of water removed)) 2 wt %; (start materials of the cosmetic composition (without processing)) 0.5 wt %.

The record behind these values is patent US20060222617A1, “Water-soluble cosmetic composition and method for manufacturing the same” (Taiyen Biotech. Co. Ltd., priority 2005, published 2006).
